One series has as its system model of OA in rabbits. The note with it: reported in Inflamm Res 44, Suppl 2, S117-118 (1995); cited from earlier work.
Series [1] has as its system partial meniscectomy model in rabbits. Kind of series: partial meniscectomy model of osteoarthritis in rabbits (erosion area). Type of series: in vivo, rabbit. The following applies: female rabbits, 1, 3 and 10 mg/kg per day, administered twice a day, 7 days after operation, FIG. 1. How it is done:
Efficiencies of the compounds in the present invention on osteoarthrosis were proven, for example, by an experiment of a partial meniscectomy model in rabbits.
Female rabbits (Kbs: NZW (Healthy)) were preliminarily bred for a week and subjected to ablative operation of meniscus by the following method.
Each animal was anesthetized by a subcutaneous injection of 2% parenteral celactal (0.05 ml/kg) to the poll and an intravenous injection of nembutal (20 mg/kg) to the marginal auricle. Their right knees were disinfected with Iodine tincture that dilutes five times with distilled water. If necessary, local anesthesia was performed by dropping 2% of parenteral xylocaine to incised part.
Then, skins and articular capsules outside knees of right hind legs were incised at right angle to patellar ligament, fibular collateral ligaments and sesamoid ligaments were transected. In that case, parenteral solution of bosmin was dropped for the arrest of hemorrhage. […]
After anesthesia by an intravenous injection of parenteral nembutal (40 mg/kg) to marginal auricle, the animals were made to die by venesection and gathered their right knees of joint part. […] After collecting all samples and masking them, their erosion areas were measured with a stereoscopic microscope. […]

For another series, the system named is rat. Description: toxicity, single oral administration to rat. The following applies: oral administration to rat once. Type of series: in vivo. How it is done: It was considered that the toxicities of the compounds represented by the formula (I) could be very low and safe to use as a medicine. For example, the lowest lethal dose in oral administration of compound (II) to rat once was 2000 mg/kg or more.

Regarding `COc1ccc(S(=O)(=O)N(Cc2cccnc2)[C@@H](C(=O)NO)C(C)C)cc1.Cl` [CGS-27023A, 2(R)-[N-(4-methoxyphenylsulfonyl)-N-(3-pyridylmethyl)amino]-3-methylbutanohydroxamic acid hydrochloride], the “effect on a model of OA in rabbits” value in the series with model of OA in rabbits was “could be effect”.
On to `C[C@@H](C[C@@H](CO)NC(=O)c1ccc(Oc2ccccc2)cc1)C(=O)NO` [compound (II), N-hydroxy-5-hydroxy-2(S)-methyl-4(S)-(4-phenoxybenzoyl)aminopentanamide], for which, in series [1], the “inhibitory effect on erosion area of thigh bone” value is “inhibitory effect”. The molecule also returned a lowest lethal dose in the series on rat of no less than 2000 mg/kg.
